Values quoted from earlier work, collected in patent US6211152A, “Formulations for peptide release” (Peptech Limited, priority 1995, dated 2001).

Experiments:
prostate cancer in rats = conditions: microencapsulated form, controlled dose over 30 days, vs daily subcutaneous equivalent or double doses of free peptide
dogs/bitches = conditions: overdosing dogs/bitches

Compound	suppressing serum testosterone levels and prostate tumour weight (prostate cancer in rats)	period of shut down of reproductive function (dogs/bitches)
[D Trp^6 ] LH-RH	more effective	
CC(C)C[C@H](NC(=O)[C@@H](Cc1ccc2ccccc2c1)NC(=O)[C@H](Cc1ccc(O)cc1)NC(=O)[C@H](CO)NC(=O)[C@H](Cc1c[nH]c2ccccc12)NC(=O)[C@H](Cc1c[nH]cn1)NC(=O)[C@@H]1CCC(=O)N1)C(=O)N[C@@H](CCCNC(=N)N)C(=O)N1CCC[C@H]1C(=O)NCC(N)=O [nafarelin]		three to eighteen
